Data taken from article PMC8119466, “A screen of FDA-approved drugs identifies inhibitors of protein tyrosine phosphatase 4A3 (PTP4A3 or PRL-3)” (Scientific Reports, 2021).
Read-outs that look alike come from different tables or passages of the source.

How the values were obtained:
SW480 cells [1] = assay: Scratch (migration) assay, SW480; type: cell-based, human; settings: 24 h, 100 µM Salirasib or 25 µM Candesartan, vs DMSO
Experimental: (§1) Cells were seeded into duplicate wells of a 48 well plates at a density of 2 × 10^5 cells per well for HEK293T or 4 × 10^5 for HCT116 and SW480. Cells were recovered overnight and were scratched using a p20 pipette tip the following day. Compounds were added at the concentrations indicated. Images were obtained immediately after the scratch and after a 24 h incubation with the drug on an Evos FL inverted microscope (ThermoFisher). The area within the scratch was calculated using ImageJ. The area migrated was measured as the difference in wound area at 0 h and 24 h and the percent change in migration was calculated by dividing the difference in wound area of treatment by the difference in wound area of the control.

HCT116 cells = assay: Scratch (migration) assay, HCT116; type: cell-based, human; settings: 24 h, 100 µM Salirasib or 25 µM Candesartan
Experimental: pENTR-PRL-3 (previously described[51]) was cloned into pLKO-CMV-puro using LR clonase (Thermofisher, 11,791,019) according to manufacturer’s directions. pLKO-CMV empty vector (EV) and pLKO-CMV:PRL-3 were transfected into HEK293T using Lipofectamine 3000 (ThermoFisher, L3000015) according to manufacturer’s protocol. Transfected cells were selected with 1 µg/mL puromycin in complete media to establish the cell line, then were maintained under 0.5 µg/mL puromycin in complete media. For PRL-3 knockdown, pLKO.1-scrambled shRNA and pLKO.1-PRL-3 shRNA[51] plasmids were transfected into HCT116 cells using Lipofectamine 3000 (Thermo Fisher, Cat # L3000015) according to the manufacturer’s directions. Cells were selected for 48 h in 1 µg/mL puromycin before use in assays.
as §1

ACP1 (LMPTP-B) = target: T1, ACP1 (LMPTP-B) (Homo sapiens, UniProt P24666); assay: PhosphataseProfiler (Eurofins) selectivity panel; type: biochemical; settings: 25µM
T1 construct: purchased Eurofins PP260
T1 sequence (P24666 1-158 isoform P24666-2): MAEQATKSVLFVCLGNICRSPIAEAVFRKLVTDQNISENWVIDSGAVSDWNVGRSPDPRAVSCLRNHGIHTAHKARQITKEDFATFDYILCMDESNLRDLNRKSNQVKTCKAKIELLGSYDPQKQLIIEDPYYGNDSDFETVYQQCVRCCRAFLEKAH
Experimental: (§3) Briefly, protein was diluted in reaction buffer and allowed to incubate at 4 °C for 20 min to allow for full reduction of the active site. DiFMUP, drug, and protein were added, and plates were incubated for 20 min at room temperature. Fluorescence intensities were measured on a Cytation 5 plate reader (Biotek) at an EX:360 nm and EM:460 nm. […] Inhibition selectivity for PRLs over a panel of other phosphatases was determined using PhosphataseProfiler (Eurofins, Cat # PP260).

HEK293T cells [2] = assay: MTT viability assay; type: cell-based, human; settings: 16 h
Experimental: Cells were seeded into duplicate wells of a 96 well plate at a density of 2 × 10^4 cells per well and allowed to recover for 24 h. Cells were then treated with drug or DMSO at the indicated concentrations for 16 h. Following drug treatment, 10 μL of 5 mg/ml MTT (Sigma, M5655) was added to each well and cells were incubated for 4 h. Finally, media were removed, and the dye was solubilized in 100 μL of 0.1 M HCl in isopropanol. Absorbance was measured at 570 nm and 690 nm with final absorbance measurements as 570–690 nm.

PTP1B = target: T2, PTP1B (Homo sapiens, UniProt P18031); assay: PhosphataseProfiler (Eurofins) selectivity panel; type: biochemical; settings: 25µM
T2 construct: purchased Eurofins PP260
T2 sequence (P18031 whole entry): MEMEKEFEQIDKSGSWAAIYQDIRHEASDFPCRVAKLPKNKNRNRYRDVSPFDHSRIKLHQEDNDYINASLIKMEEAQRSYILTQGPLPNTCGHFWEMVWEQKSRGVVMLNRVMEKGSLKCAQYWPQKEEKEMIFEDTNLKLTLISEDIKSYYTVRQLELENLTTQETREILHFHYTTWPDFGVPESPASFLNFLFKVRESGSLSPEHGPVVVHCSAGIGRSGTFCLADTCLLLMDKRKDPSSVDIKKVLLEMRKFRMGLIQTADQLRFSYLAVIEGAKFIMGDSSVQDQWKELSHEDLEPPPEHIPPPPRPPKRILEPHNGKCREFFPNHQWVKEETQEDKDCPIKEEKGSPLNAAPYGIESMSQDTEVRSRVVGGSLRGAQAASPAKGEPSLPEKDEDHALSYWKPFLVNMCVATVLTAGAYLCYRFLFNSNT
Experimental: (§4) Inhibition selectivity for PRLs over a panel of other phosphatases was determined using PhosphataseProfiler (Eurofins, Cat # PP260).

ACP1 (LMPTP-A) = target: T3, ACP1 (LMPTP-A) (Homo sapiens, UniProt P24666); assay: PhosphataseProfiler (Eurofins) selectivity panel; type: biochemical; settings: 25µM
T3 construct: purchased Eurofins PP260
T3 sequence (P24666 whole entry): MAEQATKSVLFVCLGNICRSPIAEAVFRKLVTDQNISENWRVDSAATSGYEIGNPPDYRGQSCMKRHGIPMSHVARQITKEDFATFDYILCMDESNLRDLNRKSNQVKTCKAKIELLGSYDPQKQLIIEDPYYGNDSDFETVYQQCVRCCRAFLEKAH
Experimental: as §3

phospho-ERK = assay: Western blot of phospho-ERK in HCT116 cells; type: cell-based, human; settings: HCT116, 24 hr; 100 µM Salirasib, 25 µM Candesartan
Experimental: Cells were lysed using Qproteome lysis buffer (Qiagen, Cat # 37901), then spun at 14,000 rpm for 10 min at 4 °C. Protein concentration in the supernatant was quantified using BCA assay (Thermo Scientific, Cat # 23227). 30 μg of protein was loaded into each lane of a TGX-stain-free pre-cast 4–20% SDS gel (Biorad, Cat # 4568094), total protein was quantified upon stain-free gel imaging, and protein was transferred onto PVDF membrane using the Trans-Blot Turbo Transfer System (BioRad, Cat # 1704150). Membranes were blocked with 5% milk in 1% TBST for 1 h, and a 1:1000 dilution of Anti-PRL-3 antibody (R&D Biosystems, Cat # MAB3219), 1:5000 phospho-ERK (Cell Signaling, Cat # 19101) or 1:5000 total ERK (Cell Signaling, Cat # 137F5) was added overnight. Following three washes in TBST, secondary HRP-conjugated antibody (GE, Cat # NA9340V) were added at a 1:5000 dilution for 1 h and membranes imaged using Clarity Western ECL Substrate. (BioRad, Cat # 1705061).

PTPRM = target: T4, PTPRM (Homo sapiens, UniProt P28827); assay: PhosphataseProfiler (Eurofins) selectivity panel; type: biochemical; settings: 25µM
T4 construct: purchased Eurofins PP260
T4 sequence (P28827 21-1452): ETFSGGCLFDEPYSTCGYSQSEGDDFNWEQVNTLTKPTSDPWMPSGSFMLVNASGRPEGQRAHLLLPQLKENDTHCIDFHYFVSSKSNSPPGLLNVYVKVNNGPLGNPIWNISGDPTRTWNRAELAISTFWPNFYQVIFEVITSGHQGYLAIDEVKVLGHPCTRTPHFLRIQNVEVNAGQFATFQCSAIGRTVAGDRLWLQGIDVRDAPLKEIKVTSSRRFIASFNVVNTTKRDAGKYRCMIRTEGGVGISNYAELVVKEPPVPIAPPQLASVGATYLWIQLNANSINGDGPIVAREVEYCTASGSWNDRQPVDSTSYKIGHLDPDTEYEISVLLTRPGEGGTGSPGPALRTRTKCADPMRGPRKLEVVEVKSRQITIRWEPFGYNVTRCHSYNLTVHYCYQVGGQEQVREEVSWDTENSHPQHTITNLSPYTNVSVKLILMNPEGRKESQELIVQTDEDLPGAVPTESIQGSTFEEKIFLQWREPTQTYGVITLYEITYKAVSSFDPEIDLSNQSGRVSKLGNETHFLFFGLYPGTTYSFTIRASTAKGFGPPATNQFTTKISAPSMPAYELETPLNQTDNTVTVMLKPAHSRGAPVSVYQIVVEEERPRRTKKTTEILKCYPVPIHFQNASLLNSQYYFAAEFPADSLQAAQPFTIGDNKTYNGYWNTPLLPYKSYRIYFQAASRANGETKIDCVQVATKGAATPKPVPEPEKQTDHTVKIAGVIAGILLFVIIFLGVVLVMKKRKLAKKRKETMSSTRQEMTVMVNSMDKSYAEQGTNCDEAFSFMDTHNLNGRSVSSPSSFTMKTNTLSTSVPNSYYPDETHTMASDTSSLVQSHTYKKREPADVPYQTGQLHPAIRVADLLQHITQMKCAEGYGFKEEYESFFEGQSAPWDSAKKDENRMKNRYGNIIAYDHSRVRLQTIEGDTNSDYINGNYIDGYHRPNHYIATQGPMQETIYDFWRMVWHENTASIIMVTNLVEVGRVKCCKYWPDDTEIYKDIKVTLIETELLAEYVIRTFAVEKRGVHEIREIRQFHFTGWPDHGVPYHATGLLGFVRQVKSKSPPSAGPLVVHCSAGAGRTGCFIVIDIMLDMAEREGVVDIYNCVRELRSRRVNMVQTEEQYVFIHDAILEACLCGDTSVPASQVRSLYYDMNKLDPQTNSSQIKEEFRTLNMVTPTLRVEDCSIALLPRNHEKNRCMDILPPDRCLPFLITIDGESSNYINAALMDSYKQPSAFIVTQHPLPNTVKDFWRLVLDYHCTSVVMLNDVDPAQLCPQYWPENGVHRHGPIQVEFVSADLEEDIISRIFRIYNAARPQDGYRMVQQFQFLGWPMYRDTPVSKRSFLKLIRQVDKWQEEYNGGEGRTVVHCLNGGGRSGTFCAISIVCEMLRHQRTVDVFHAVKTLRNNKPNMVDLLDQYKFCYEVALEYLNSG
Experimental: as §4

recombinant PRL-3 = target: T5, recombinant PRL-3 (Homo sapiens, UniProt O75365); assay: In vitro phosphatase assay (DiFMUP hydrolysis), PRL-3; type: biochemical; settings: for IC50: DiFMUP at KM, read-out: Calculated IC50, PRL-3 phosphatase activity; for mode of inhibition (Lineweaver-Burke analysis): versus DiFMUP substrate, reduce apparent Vmax, do not affect KM; for % Phosphatase Activity (compared to DMSO) PRL-3: FDA-approved drug screen
T5 construct: 6xHis (N, cleaved yes); made in house; host or cells: E. coli One Shot BL21 Star
T5 sequence (O75365 whole entry): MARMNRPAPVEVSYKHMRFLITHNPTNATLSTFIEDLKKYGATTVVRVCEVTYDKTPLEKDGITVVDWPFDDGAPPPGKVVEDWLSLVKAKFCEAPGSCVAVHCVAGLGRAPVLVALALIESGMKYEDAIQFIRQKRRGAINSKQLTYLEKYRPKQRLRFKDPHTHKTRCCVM

SW480 cells [3] = assay: Click-IT Edu cell proliferation assay, SW480; type: cell-based, human; settings: 100 µM Salirasib or 25 µM Candesartan, 24 and 48 hr
Experimental: (§2) The cell proliferation assay was performed using the Click-IT Edu cell proliferation kit from (Thermo Fisher, Cat # C10419) according to the manufacturer’s protocol. Briefly, HEK293T, HCT116 and SW480 cells were plated in 6 well dishes at 4 × 10^5 cell seeding density and treated with DMSO, Candesartan and Salirasib at the indicated concentrations. Edu was added 2 h prior to collecting the cells at 24 h and 48 h time points and the assay was performed according to the instructions from the manual. Flow cytometry with AlexaFluor647 conjugated azide dye was used to determine the cellular proliferation and DAPI was used for the DNA content.

VHR = target: T6, VHR (Homo sapiens, UniProt P51452); assay: PhosphataseProfiler (Eurofins) selectivity panel; type: biochemical; settings: 25µM
T6 construct: purchased Eurofins PP260
T6 sequence (P51452 whole entry): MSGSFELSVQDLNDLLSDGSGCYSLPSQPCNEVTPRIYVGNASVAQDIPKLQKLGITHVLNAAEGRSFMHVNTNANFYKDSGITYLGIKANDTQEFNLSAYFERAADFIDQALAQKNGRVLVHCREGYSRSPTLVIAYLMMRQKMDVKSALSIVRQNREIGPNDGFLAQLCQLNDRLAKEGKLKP
Experimental: as §4

recombinant PRL-1 = target: T7, recombinant PRL-1 (Homo sapiens, UniProt Q93096); assay: In vitro phosphatase assay (DiFMUP hydrolysis), PRL-1; type: biochemical; settings: for IC50: DiFMUP at KM, read-out: Calculated IC50, PRL-1 phosphatase activity; for % Phosphatase Activity (compared to DMSO) PRL-1: FDA-approved drug screen
T7 construct: 6xHis (N, cleaved yes); made in house; host or cells: E. coli One Shot BL21 Star
T7 sequence (Q93096 1-173): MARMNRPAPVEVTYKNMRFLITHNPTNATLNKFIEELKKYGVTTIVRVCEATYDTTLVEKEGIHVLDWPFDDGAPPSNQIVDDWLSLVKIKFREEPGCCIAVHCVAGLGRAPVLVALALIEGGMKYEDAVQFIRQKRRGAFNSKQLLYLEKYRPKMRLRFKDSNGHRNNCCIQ

HEK293T cells [4] = assay: Click-IT Edu cell proliferation assay, HEK293T; type: cell-based, human; settings: 100 µM Salirasib or 25 µM Candesartan, 24 and 48 hr
Experimental: as §2

recombinant PRL-2 = target: T8, recombinant PRL-2 (Homo sapiens, UniProt Q12974); assay: In vitro phosphatase assay (DiFMUP hydrolysis), PRL-2; type: biochemical; settings: for % Phosphatase Activity (compared to DMSO) PRL-2: FDA-approved drug screen;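 as to all read-outs here: PRL-2 activity read as DiFMUP hydrolysis after 20 min at room temperature with drug, enzyme first pre-reduced at 4 °C for 20 min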
T8 construct: 6xHis (N, cleaved yes); made in house; host or cells: E. coli One Shot BL21 Star
T8 sequence (Q12974 1-167): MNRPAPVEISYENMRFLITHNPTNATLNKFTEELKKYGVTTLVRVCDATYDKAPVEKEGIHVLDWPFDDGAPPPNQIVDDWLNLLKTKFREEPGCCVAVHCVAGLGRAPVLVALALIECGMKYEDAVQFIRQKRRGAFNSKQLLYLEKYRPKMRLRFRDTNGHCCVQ

PTPbeta = target: T9, PTPbeta (Homo sapiens, UniProt P23467); assay: PhosphataseProfiler (Eurofins) selectivity panel; type: biochemical; settings: 25µM
T9 construct: purchased Eurofins PP260
T9 sequence (P23467 23-1997): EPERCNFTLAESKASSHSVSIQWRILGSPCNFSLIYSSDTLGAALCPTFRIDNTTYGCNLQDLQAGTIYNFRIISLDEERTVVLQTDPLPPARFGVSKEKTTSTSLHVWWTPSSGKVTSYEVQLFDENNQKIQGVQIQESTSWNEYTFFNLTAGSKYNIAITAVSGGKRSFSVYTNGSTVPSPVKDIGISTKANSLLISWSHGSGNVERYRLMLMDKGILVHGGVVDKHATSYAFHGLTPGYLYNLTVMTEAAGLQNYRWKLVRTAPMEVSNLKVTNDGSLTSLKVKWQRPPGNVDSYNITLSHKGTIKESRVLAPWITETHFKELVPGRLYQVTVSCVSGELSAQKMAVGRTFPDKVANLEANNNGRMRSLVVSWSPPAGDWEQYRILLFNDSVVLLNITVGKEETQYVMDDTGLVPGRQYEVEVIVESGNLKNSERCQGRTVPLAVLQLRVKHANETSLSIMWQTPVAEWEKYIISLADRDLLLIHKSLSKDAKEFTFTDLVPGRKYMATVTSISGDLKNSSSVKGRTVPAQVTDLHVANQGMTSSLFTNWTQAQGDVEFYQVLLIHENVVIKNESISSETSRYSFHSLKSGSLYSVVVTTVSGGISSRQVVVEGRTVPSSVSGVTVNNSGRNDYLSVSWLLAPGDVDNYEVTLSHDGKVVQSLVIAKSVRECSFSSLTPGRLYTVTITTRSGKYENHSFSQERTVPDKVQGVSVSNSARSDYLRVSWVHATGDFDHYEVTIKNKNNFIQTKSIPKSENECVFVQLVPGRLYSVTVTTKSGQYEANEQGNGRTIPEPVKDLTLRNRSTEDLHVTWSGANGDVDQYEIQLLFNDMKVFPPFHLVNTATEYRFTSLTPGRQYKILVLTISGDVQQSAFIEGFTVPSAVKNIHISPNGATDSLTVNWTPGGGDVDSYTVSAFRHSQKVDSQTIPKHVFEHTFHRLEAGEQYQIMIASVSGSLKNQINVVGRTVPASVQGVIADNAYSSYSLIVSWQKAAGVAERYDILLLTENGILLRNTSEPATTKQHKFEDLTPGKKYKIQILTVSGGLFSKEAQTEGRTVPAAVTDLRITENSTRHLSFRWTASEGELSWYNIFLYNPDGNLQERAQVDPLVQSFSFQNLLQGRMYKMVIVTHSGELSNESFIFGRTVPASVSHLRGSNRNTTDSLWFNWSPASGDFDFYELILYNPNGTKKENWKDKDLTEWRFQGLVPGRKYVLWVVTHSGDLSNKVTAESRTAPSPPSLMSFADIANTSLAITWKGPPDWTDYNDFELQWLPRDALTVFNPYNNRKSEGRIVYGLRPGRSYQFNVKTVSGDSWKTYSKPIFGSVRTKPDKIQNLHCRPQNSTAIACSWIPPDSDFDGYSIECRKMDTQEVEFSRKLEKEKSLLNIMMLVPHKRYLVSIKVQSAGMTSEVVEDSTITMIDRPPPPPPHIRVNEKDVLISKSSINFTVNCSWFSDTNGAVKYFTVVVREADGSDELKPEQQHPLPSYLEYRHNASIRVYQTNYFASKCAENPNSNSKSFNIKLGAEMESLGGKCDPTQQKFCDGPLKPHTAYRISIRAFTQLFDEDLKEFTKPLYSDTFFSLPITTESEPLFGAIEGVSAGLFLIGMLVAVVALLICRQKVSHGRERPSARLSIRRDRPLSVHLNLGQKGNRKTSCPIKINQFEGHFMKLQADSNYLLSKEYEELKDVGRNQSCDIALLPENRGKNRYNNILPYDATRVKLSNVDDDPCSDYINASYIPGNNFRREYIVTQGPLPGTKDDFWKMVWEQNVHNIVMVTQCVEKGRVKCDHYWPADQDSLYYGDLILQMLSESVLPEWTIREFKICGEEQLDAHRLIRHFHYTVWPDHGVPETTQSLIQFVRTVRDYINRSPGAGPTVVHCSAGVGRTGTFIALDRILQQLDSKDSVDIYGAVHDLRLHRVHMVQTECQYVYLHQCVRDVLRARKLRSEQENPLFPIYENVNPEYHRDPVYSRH
Experimental: as §4

[5] = listed as Candesartan Cilexetil

Row | SMILES | migration of HCT116 cells with PRL-3 knock-down (PRL-3 shRNA) (HCT116 cells) | Percent Phosphatase Activity (compared to DMSO) (ACP1 (LMPTP-B)) | Percent Phosphatase Activity (compared to DMSO) (PTP1B) | Percent Phosphatase Activity (compared to DMSO) (ACP1 (LMPTP-A)) | phospho-ERK levels (phospho-ERK) | Percent Phosphatase Activity (compared to DMSO) (PTPRM) | mode of inhibition (Lineweaver-Burke analysis) (recombinant PRL-3) | cell cycle (EdU staining) (SW480 cells [3]) | Percent Phosphatase Activity (compared to DMSO) (VHR) | % Phosphatase Activity (compared to DMSO) PRL-1 (recombinant PRL-1) | cell cycle (EdU staining) (HEK293T cells [4]) | % Phosphatase Activity (compared to DMSO) PRL-2 (recombinant PRL-2) | Percent Phosphatase Activity (compared to DMSO) (PTPbeta) | further results
1 | CC(C)=CCC/C(C)=C/CC/C(C)=C/CSc1ccccc1C(=O)O [Salirasib] | significantly reduced migration | 106% | 114% | 96% | decreased phospho-ERK levels | 111% | non-competitive inhibitors | did not significantly impact | 97% | 26% | did not significantly impact | 6% | 91% | inhibition at 100 µM (SW480 cells [1]; Homo sapiens, SW480): > 30%; inhibition at 100 µM (HCT116 cells; Homo sapiens, HCT-116, vs DMSO): > 30%; viability (MTT) (HEK293T cells [2]; drug doses 1 to 100 µM, normalized to 1% DMSO): no effect on the viability; IC50 (recombinant PRL-3; 2.5 µM protein): 27 ± 3 µM; IC50 (recombinant PRL-1; 2.5 µM protein): 53 ± 5 µM
2 | CCOc1nc2cccc(C(=O)O)c2n1Cc1ccc(-c2ccccc2-c2nnn[nH]2)cc1 [Candesartan] | no additional impact on migration | 113% | 109% | 97% | decreased phospho-ERK levels | 107% | non-competitive inhibitors | did not significantly impact | 87% | 106% | did not significantly impact | 92% | 85% | inhibition of migration of SW480 cells (SW480 cells [1]): > 30%; inhibition of migration of HCT116 cells (HCT116 cells; vs DMSO): > 30%; viability (MTT) (HEK293T cells [2]; 100 µM): viability dropped significantly; viability (MTT) (HEK293T cells [2]; up to 50 µM): insignificant effect on viability; % Phosphatase Activity (compared to DMSO) PRL-3 (recombinant PRL-3): 82%; % Phosphatase Activity (compared to DMSO) PRL-3 (recombinant PRL-3; [5]): -3.55%; IC50 (recombinant PRL-3; […] protein): 28 ± 4 µM; % Phosphatase Activity (compared to DMSO) PRL-1 (recombinant PRL-1; [5]): 6.33%; IC50 (recombinant PRL-1; […] protein): 69 ± 8 µM; % Phosphatase Activity (compared to DMSO) PRL-2 (recombinant PRL-2; [5]): 13%; IC50 (recombinant PRL-2; […] protein, DiFMUP at KM, read-out: Calculated IC50, PRL-2 phosphatase activity): 80 ± 15 µM
